Experiment [1] addresses Serine/threonine-protein kinase Nek4 (Homo sapiens, UniProt P51957). The format is functional.
Experiment [2] concerns the target Mitogen-activated protein kinase kinase kinase kinase 5 (Homo sapiens, UniProt Q9Y4K4). The format is functional.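 Note: measured as one member of a kinome-spanning kinase panel.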
In the next experiment the target is LIM domain kinase 1 (Homo sapiens, UniProt P53667). Put plainly: Navigating the Kinome. Panel member name: LIMK1. The format is functional.
Experiment [3] addresses RAC-gamma serine/threonine-protein kinase (Homo sapiens, UniProt Q9Y243). The format is functional.
In experiment [4] the target is Protein-tyrosine kinase 2-beta (Homo sapiens, UniProt Q14289). The format is functional.
The target of experiment [5] is Testis-specific serine/threonine-protein kinase 2 (Homo sapiens, UniProt Q96PF2). The class given is functional.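 Note: part of the Navigating the Kinome panel, target entry STK22B.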
In experiment [6] the target is T1, Mannose-6-phosphate isomerase (Homo sapiens, UniProt P34949).
T1 sequence (P34949 whole entry): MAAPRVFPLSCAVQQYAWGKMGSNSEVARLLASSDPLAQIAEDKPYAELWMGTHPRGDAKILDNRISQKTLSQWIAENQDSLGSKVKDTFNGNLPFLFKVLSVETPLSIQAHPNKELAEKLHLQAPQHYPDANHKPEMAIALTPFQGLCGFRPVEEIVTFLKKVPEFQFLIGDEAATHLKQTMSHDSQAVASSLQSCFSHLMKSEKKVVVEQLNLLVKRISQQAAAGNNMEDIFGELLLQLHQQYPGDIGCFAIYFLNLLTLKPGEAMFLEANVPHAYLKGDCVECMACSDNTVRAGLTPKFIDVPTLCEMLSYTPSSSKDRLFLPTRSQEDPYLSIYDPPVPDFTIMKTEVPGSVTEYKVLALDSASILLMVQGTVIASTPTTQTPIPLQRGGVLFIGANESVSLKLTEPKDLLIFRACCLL
Put plainly: PMI enzyme inhibitors, confirmation, biochemical, fluorescence intensity (AID 1535).

Experiment [7] can be described thus: THP-1 cell cytotoxicity, dose response, cytotoxicity control for non-replicating M. tuberculosis project (AID 489025). The format is functional.
Experiment [8] addresses Dual specificity tyrosine-phosphorylation-regulated kinase 1A (Rattus norvegicus, UniProt Q63470). The format is biochemical, Homo sapiens.
Experiment [9] concerns the target T2, Sentrin-specific protease 7 (Homo sapiens, UniProt Q9BQF6).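 Note: Luminescence-based dose-response confirmation of ultra-high-throughput screening hits, measuring inhibition of SENP7.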
T2 sequence (Q9BQF6 whole entry): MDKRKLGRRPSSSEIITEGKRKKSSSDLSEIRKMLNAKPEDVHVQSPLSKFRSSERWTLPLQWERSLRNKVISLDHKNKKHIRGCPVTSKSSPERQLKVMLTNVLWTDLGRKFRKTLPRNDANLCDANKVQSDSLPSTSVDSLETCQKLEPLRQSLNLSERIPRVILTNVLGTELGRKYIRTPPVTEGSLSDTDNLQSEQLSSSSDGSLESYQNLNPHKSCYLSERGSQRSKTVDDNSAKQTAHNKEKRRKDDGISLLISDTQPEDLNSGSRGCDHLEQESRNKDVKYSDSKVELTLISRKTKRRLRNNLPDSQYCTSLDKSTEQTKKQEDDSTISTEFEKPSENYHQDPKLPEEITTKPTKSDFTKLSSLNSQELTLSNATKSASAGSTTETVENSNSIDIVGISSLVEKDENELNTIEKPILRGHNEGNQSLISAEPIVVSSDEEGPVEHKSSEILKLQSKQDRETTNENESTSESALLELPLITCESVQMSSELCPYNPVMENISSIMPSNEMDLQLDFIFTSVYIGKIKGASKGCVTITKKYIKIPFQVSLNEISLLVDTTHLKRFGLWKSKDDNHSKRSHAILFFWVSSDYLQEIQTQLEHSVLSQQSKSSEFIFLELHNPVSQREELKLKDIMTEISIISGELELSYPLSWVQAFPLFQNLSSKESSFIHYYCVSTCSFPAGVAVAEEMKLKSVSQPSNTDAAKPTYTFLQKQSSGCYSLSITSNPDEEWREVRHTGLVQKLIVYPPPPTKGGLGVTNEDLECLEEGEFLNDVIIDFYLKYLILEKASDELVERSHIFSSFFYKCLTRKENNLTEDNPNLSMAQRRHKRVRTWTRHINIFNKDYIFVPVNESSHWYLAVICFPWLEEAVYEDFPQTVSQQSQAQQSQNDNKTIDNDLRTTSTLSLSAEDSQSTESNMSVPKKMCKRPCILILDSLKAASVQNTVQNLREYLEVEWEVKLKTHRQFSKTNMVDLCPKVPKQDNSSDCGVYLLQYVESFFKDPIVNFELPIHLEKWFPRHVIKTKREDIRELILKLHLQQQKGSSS
The class given is functional.

For experiment [10], the target named is T3, Sentrin-specific protease 6 (Homo sapiens, UniProt Q9GZR1).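 Note: Luminescence-based dose-response confirmatory assay of SENP6 inhibition, following up an ultra-high-throughput screen.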
T3 sequence (Q9GZR1 whole entry): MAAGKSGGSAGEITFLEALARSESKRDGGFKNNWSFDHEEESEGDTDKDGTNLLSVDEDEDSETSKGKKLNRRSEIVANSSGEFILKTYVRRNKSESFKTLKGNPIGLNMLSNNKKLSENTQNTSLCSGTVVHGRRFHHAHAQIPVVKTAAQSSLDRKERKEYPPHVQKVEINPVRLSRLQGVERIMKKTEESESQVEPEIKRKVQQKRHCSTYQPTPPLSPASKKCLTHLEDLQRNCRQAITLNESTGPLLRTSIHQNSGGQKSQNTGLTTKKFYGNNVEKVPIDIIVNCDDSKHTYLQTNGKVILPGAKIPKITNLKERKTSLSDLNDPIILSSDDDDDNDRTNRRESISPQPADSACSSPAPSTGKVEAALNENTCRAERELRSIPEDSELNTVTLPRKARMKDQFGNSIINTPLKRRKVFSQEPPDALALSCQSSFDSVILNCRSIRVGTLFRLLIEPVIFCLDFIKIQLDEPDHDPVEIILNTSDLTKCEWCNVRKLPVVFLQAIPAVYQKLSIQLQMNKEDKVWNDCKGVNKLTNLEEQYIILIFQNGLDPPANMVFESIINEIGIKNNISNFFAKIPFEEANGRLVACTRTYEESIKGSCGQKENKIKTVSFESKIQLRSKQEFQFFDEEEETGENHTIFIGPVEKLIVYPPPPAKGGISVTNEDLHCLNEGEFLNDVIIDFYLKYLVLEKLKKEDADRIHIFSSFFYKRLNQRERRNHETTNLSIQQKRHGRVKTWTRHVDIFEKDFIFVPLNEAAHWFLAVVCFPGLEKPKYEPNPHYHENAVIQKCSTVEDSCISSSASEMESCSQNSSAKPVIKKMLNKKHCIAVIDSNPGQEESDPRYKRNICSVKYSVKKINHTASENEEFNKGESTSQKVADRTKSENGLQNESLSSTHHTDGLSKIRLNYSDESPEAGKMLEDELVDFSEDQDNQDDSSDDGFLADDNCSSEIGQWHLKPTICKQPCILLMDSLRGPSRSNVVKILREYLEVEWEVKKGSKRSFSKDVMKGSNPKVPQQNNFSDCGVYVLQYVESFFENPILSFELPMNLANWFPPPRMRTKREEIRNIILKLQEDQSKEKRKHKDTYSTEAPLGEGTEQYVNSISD
The class given is functional.

The structures appear in SMILES notation. Values joined by “and” are separate entries in the source; they are usually repeats but may differ in a detail not shown here. Equal entries are not always repeated. Active and inactive are the calls of the source.

RAC-gamma serine/threonine-protein kinase, sequence (Q9Y243 whole entry): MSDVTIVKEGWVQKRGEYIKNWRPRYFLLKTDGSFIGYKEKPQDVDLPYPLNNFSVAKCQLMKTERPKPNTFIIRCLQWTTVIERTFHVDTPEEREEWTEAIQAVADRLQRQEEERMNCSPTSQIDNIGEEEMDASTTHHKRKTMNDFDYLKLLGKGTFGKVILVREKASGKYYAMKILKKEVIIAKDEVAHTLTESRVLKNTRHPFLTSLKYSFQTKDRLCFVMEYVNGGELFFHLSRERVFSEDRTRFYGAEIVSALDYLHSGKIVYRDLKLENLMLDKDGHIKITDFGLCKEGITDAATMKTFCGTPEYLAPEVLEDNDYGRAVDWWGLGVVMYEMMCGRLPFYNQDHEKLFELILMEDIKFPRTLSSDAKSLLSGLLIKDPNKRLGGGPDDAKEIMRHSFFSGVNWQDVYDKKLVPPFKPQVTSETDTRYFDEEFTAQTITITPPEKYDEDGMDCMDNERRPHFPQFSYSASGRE
Mitogen-activated protein kinase kinase kinase kinase 5, sequence (Q9Y4K4 whole entry, the tested form may be a part): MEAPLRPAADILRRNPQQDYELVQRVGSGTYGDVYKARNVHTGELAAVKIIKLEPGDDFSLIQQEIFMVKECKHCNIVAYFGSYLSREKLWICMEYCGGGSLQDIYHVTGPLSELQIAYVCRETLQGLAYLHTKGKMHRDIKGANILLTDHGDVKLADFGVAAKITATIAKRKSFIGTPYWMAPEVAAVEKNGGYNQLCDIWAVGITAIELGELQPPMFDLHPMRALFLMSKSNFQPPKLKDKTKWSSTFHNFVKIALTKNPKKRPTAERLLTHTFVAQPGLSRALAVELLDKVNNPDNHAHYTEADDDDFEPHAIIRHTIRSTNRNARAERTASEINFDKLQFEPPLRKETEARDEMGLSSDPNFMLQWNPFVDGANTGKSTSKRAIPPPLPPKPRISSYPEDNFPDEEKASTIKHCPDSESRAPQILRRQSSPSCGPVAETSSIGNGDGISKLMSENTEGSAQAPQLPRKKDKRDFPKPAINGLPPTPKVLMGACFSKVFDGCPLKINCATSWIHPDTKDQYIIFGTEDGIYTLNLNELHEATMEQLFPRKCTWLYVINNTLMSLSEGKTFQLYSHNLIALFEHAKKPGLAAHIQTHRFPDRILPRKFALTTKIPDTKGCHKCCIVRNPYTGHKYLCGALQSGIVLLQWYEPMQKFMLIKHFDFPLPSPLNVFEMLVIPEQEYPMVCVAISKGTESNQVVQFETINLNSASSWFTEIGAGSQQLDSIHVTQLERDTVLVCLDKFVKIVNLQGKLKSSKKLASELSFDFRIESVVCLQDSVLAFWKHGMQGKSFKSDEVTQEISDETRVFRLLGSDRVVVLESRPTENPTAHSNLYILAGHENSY
Serine/threonine-protein kinase Nek4, sequence (P51957 whole entry): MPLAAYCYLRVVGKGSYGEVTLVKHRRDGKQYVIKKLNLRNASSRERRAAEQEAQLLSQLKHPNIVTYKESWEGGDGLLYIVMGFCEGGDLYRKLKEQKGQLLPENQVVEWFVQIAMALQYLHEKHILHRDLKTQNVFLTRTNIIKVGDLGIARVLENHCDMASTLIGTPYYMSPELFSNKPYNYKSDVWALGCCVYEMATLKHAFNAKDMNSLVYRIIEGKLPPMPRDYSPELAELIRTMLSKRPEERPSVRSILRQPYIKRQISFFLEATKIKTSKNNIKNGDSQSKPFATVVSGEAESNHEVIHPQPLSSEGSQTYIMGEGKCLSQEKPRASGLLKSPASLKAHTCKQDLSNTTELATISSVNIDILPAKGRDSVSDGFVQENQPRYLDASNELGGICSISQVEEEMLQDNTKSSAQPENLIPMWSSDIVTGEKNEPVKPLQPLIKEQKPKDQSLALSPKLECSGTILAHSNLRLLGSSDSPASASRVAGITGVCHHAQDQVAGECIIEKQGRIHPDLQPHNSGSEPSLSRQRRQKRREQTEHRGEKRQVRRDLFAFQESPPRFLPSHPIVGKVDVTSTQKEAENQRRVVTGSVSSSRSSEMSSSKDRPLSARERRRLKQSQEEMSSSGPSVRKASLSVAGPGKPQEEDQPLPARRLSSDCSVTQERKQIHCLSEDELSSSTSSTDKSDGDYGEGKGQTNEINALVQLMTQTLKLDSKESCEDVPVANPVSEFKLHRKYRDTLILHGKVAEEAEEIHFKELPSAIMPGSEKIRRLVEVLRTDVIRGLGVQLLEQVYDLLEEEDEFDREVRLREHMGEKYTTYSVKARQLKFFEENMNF
Protein-tyrosine kinase 2-beta, sequence (Q14289 whole entry): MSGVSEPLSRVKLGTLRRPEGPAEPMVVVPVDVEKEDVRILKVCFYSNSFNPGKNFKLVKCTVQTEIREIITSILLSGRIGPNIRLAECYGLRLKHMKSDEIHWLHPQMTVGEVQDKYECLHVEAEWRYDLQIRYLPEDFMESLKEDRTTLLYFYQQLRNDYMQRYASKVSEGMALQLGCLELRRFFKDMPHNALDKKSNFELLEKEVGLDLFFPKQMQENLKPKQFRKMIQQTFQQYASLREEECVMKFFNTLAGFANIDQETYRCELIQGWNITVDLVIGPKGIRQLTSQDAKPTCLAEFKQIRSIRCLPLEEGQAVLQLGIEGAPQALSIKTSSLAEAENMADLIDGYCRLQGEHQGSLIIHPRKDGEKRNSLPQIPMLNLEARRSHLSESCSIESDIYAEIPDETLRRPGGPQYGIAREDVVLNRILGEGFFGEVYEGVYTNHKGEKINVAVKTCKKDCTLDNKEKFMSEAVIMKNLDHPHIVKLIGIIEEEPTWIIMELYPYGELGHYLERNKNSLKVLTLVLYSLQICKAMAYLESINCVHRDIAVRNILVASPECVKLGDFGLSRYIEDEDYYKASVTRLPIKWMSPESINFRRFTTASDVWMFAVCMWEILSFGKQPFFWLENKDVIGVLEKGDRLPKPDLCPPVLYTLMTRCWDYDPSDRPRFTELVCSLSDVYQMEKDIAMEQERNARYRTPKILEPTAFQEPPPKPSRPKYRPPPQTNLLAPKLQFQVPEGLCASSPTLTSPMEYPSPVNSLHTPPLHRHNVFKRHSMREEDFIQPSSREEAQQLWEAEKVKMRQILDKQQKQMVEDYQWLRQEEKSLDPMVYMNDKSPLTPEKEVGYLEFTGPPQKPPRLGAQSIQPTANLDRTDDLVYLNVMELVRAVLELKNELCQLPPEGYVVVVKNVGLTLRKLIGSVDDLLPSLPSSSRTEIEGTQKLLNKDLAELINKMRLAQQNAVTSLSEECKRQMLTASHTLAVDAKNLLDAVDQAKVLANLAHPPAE
LIM domain kinase 1, sequence (P53667 whole entry, the tested form may be a part): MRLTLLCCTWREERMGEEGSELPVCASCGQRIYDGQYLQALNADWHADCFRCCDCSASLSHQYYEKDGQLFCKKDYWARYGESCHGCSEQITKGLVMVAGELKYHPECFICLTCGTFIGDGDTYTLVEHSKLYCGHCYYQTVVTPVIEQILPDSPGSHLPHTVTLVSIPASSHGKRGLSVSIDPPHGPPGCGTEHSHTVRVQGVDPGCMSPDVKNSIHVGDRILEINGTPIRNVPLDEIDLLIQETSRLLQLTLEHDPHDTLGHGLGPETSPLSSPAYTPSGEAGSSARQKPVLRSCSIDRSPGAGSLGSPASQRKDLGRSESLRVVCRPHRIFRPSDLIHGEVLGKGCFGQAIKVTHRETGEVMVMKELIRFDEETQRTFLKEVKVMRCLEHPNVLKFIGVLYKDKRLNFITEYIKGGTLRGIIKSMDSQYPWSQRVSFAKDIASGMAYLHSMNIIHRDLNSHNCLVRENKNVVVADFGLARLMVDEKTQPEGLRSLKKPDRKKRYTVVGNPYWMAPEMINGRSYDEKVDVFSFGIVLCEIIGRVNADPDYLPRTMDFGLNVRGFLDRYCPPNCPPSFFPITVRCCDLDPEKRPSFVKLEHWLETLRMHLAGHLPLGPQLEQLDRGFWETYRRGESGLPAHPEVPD
Testis-specific serine/threonine-protein kinase 2, sequence (Q96PF2 whole entry): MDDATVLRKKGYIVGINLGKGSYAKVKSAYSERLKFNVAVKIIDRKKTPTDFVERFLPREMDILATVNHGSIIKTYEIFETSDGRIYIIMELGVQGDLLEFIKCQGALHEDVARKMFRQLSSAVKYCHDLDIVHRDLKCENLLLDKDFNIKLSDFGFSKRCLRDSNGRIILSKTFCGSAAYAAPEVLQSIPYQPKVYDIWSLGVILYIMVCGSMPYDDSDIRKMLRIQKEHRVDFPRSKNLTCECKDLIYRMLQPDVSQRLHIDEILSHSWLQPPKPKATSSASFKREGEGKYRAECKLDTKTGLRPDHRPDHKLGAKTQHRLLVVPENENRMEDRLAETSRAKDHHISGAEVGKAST

As a reminder, the Ki is a dissociation constant, usually derived from enzyme kinetics or from competition with a known ligand. In the case of `Cc1cccc(NC(=O)Nc2ccc3c(c2)CCc2sc4ncnc(N)c4c2-3)c1`, the Ki in experiment [1] was > 6310 nM (inactive); in [2] it was 501 nM (active); on LIM domain kinase 1 it was 631 nM (active); in [3], > 10000 nM (inactive); in experiment [4], > 1580 nM (inactive); in [5], > 1580 nM (inactive).
In general, IC50 refers to the concentration needed to halve the response being measured. The term CC50 denotes the concentration that lowers cell viability or growth by half. As to `Cc1ccc(-n2sc3ccccc3c2=O)cc1`, the IC50 in [6] is 7.04 µM (active) and 4.06 µM (active). For the same compound, the cytotoxic concentration (CC50) in [7] is 18600 nM (active).
As usually defined, the AC50 is the concentration giving half of the maximal activity seen. With `N/C(=N\N=C/c1ccc(-c2ccc(O)c(C(=O)O)c2)o1)N[N+](=O)[O-]`, the half-maximal activity concentration (AC50) in experiment [8] was 1130 nM (active).
With `CC(=O)N(/N=C1\Sc2ccccc2C1=O)c1ccccc1C`, the IC50 was 3790 nM (active) in [9] and 1910 nM (active) in experiment [10].

The record behind these values is ChEMBL document CHEMBL1201862, “PubChem BioAssay data set” (2004).
